In patent US11523614B2, “Soluble granule of Bacillus velezensis and its preparation method” (priority 2019, dated 2022):
Like-named read-outs stand apart in the source and are kept apart here.

What was measured:
Type in all cases: in vivo
[1] = test system: Meloidogyne incognita; assay: Population density of J2 of root knot nematodes in soil, cucumber greenhouse; settings: for Population decline rate / Relative population reduction rate: J2 in soil; for Population decline rate: before administration vs end of test; for Relative population reduction rate: compared with the blank control; for population density of second instar larvae in soil, Before administration / population density of second instar larvae in soil, End of test: cucumber greenhouse soil
[2] = test system: Rice blast; settings: for Avg. control effect: leaf blast
[3] = test system: Rice blast; settings: 27 d After first administration; for Relative control: panicle blast
[4] = test system: cucumber; assay: Cucumber plant height at early stage; settings: for Growth effect: plant height compared with CK0; for plant height at early stage, Avg. value: average of three replicates; for plant height at early stage, R1: average value of replicate 1; for plant height at early stage, R3: average value of replicate 3
[5] = test system: Meloidogyne incognita; assay: Root-knot disease index of cucumber; settings: for root-knot index of plants, Avg. value: average of three replicates; for root-knot index of plants, R1: average value of replicate 1; for root-knot index of plants, R3: average value of replicate 3
[6] = 14 d After first administration
[7] = before the first administration
[8] = root-knot index compared with CK0

C[C@H]1O[C@H](O[C@H]2[C@H](O)[C@@H](O)[C@@H](O)[C@H](O)[C@@H]2O)[C@@H](N)C[C@@H]1NC(=N)C(=O)O [CK2, kasugamycin]
Population decline rate [1]: 73.31%
Relative population reduction rate [1]: 76.05%
Avg. leaf blast disease index ([2]; 7 d After first administration): 2.26
Avg. leaf blast disease index [2, 6]: 2.30
Leaf blast disease index before first administration [2, 7]: 1.61
Avg. control effect ([2]; 7 d After first administration): 40.8AB %
Avg. control effect [2, 6]: 55.7A %
Avg. panicle blast disease index [3]: 0.86
Relative control [3]: 66.3A %
Growth effect [4]: 6.5%

Cc1cccc2sc3nncn3c12 [CK3, Tricyclazole]
Avg. leaf blast disease index ([2]; 7 d After first administration): 2.04
Avg. leaf blast disease index [2, 6]: 2.14
Leaf rust before administration [2, 7]: 1.59
Avg. control effect ([2]; 7 d After first administration): 48.2A %
Avg. control effect [2, 6]: 60.3A %
Avg. panicle blast disease index [3]: 0.65
Relative control [3]: 74.7A %

CN1CSC(=S)N(C)C1 [Dazomet, dazomet]
Population decline rate [1]: −119.21%
Relative population reduction rate [1]: −116.47%
population density of second instar larvae in soil, Before administration [1]: 429 strip/100 mL soil
population density of second instar larvae in soil, End of test [1]: 940 strip/100 mL soil
root-knot index of plants, Avg. value [5]: 26.44ab
root-knot index of plants, R1 [5]: 27.33
root-knot index of plants, R3 [5]: 26.33
Control effect on root-knot index [5, 8]: 26.77%
plant height at early stage, Avg. value [4]: 100.6a cm
plant height at early stage, R1 [4]: 98.5 cm
plant height at early stage, R3 [4]: 103.5 cm
Growth effect [4]: −0.4%

O=C(NCc1ncc(C(F)(F)F)cc1Cl)c1c(Cl)cccc1Cl [Fluopicolide, fluopicolide]
Population decline rate [1]: 73.31%
Relative population reduction rate [1]: 76.05%
population density of second instar larvae in soil, Before administration [1]: 390 strip/100 mL soil
population density of second instar larvae in soil, End of test [1]: 104 strip/100 mL soil
root-knot index of plants, Avg. value [5]: 25.00a
root-knot index of plants, R1 [5]: 28.33
root-knot index of plants, R3 [5]: 24.67
Growth effect [5, 8]: 30.77%
plant height at early stage, Avg. value [4]: 107.6bc cm
plant height at early stage, R1 [4]: 109.4 cm
plant height at early stage, R3 [4]: 109.3 cm
Growth effect [4]: 6.5%
